# Key:
# [1] = test system: PC12-SOD1^G85R YFP cells co-treated with MG132; test: Viability screening against MG132-induced toxicity, CellTiter-Glo; format: cell-based; conditions: PC12-SOD1^G85R YFP cells co-treated with MG132 and the compounds; read-out: PC12-SOD1^G85R EC50, in vitro viability screening (protection against MG132-induced toxicity)
# Description: The HepG2 and HEK293 cells were cultured in DMEM media supplemented with 10 % FBS (heat-inactivated), 1 % Pen-strep, and L-glutamine and incubated at 37 °C in humidified air with 5 % CO2 until 85–90 % confluency. The PC12 Tet-Off-SOD1^G85R YFP cells were maintained as described in 4.2. On the day before the experiments, the cells were transferred to white bottom 96 well plates (Greiner cat. 655,083) at a concentration of 50,000 cells/100 μL of media in each well and incubated overnight at 37 °C. Stock solutions of the compounds (30 mM) in DMSO were prepared and then diluted in media to obtain the six final working solutions starting at 30 μM, and serial dilutions were obtained with the lowest concentration at 0.25 μM. The media were removed and fresh media containing the compounds or the vehicle DMSO (0.1 % v/v) were transferred to the plates containing HepG2 and HEK293 cells and the plates were incubated for 24 or 48 h at 37 °C. The PC12 Tet-Off-SOD1^G85R YFP cells compound treatment was performed as described in section 4.2 and using a 9-point 2-fold serial dilution of the compounds starting at 15 μM and the lowest concentration at 0.05 μM. After incubation, the plates were cooled to room temperature and 25 μL of CellTiter-Glo® solution was added to each well. The plates were loaded into a BioTek Synergy H1 MD plate reader and shaken for 2 min, stabilized for 10 min without shaking, and then the luminescence values were read for each well (luminescence integration step 1 ms). Wells containing media with the vehicle DMSO with or without cells were used as controls to represent, respectively, the maximum viability and the lowest viability (background signal) for the cytotoxicity studies with HepG2 and HEK293 cell lines. The viability values for the assay performed with the PC12 Tet-Off-SOD1^G85R YFP cells were normalised for the vehicle (0.1 % DMSO) and (−)-MG-132 alone treatments, which represented respectively the […] viability for the assay. […]
# [2] = test system: HepG2 cells; test: In vitro cytotoxicity, CellTiter-Glo, HepG2; format: cell-based; conditions: cytotoxicity EC50 (HepG2, HEK293) versus PC12-SOD1^G85R EC50
# Description: (§1) The HepG2 and HEK293 cells were cultured in DMEM media supplemented with 10 % FBS (heat-inactivated), 1 % Pen-strep, and L-glutamine and incubated at 37 °C in humidified air with 5 % CO2 until 85–90 % confluency. The PC12 Tet-Off-SOD1^G85R YFP cells were maintained as described in 4.2. On the day before the experiments, the cells were transferred to white bottom 96 well plates (Greiner cat. 655,083) at a concentration of 50,000 cells/100 μL of media in each well and incubated overnight at 37 °C. Stock solutions of the compounds (30 mM) in DMSO were prepared and then diluted in media to obtain the six final working solutions starting at 30 μM, and serial dilutions were obtained with the lowest concentration at 0.25 μM. The media were removed and fresh media containing the compounds or the vehicle DMSO (0.1 % v/v) were transferred to the plates containing HepG2 and HEK293 cells and the plates were incubated for 24 or 48 h at 37 °C. The PC12 Tet-Off-SOD1^G85R YFP cells compound treatment was performed as described in section 4.2 and using a 9-point 2-fold serial dilution of the compounds starting at 15 μM and the lowest concentration at 0.05 μM. After incubation, the plates were cooled to room temperature and 25 μL of CellTiter-Glo® solution was added to each well. The plates were loaded into a BioTek Synergy H1 MD plate reader and shaken for 2 min, stabilized for 10 min without shaking, and then the luminescence values were read for each well (luminescence integration step 1 ms). Wells containing media with the vehicle DMSO with or without cells were used as controls to represent, respectively, the maximum viability and the lowest viability (background signal) for the cytotoxicity studies with HepG2 and HEK293 cell lines. The viability values for the assay performed with the PC12 Tet-Off-SOD1^G85R YFP cells were normalised for the vehicle (0.1 % DMSO) and (−)-MG-132 alone treatments, which represented respectively the […] viability for the assay.
# (§2) The results are presented as an average of three independent experiments, each performed in triplicate, for the cytotoxicity experiments performed with HepG2 and HEK293 cells. The results for the protective screening with the PC12 Tet-Off-SOD1^G85R YFP cells are presented as an average of four replicates.
# [3] = In vitro cytotoxicity, CellTiter-Glo, HepG2; format: cell-based; conditions: human, HepG2 cells; for viability at 24 h, 30 μM / viability at 48 h, 30 μM: relative to untreated cells, read-out: Percentage of viable cells observed at 30 μM treatment, HepG2; for EC50 at 24 h / EC50 at 48 h: cytotoxicity
# Description: as §1, §2
# [4] = test system: HT22 hippocampal cells; test: DAPRed autophagy dye live cell imaging; format: cell-based, mouse; conditions: 3 μM, 5 h treatment, bafilomycin 0.1 μM in the last 3 h
# Description: HT22 immortalized mouse hippocampal neuronal cell line was maintained in DMEM supplemented with 10% FBS and 1% penicillin-streptomycin under standard conditions (37 °C, 5% CO2). On the day before the experiment, HT22 cells were transferred to a sterile poly-D-lysine-coated Nunc™ Lab-Tek™ II Chambered Coverglass (8 wells; Thermo Fisher Sci. cat. 155,409) at a concentration of 40,000 cells/300 μL of media in each well and incubated overnight at 37 °C. Stock solutions of Torin-1 (10 mM) and 20 (10 mM) were prepared in DMSO and then diluted in media to obtain the final treatment solutions at 0.2 and 3 μM, respectively. The media was removed, the cells were quickly washed with 1×PBS solution, and fresh media containing the compounds or the DMSO (0.1 % v/v) were transferred to the wells. The plates were incubated for 2 h. The media was removed, and after washing once with 1×PBS, fresh media containing Bafilomycin (0.1 μM), DAPRed dye (0.25 μM) and Hoescht 33,342 (55 μg/mL) was added to the wells and the cells were incubated for 3 h at 37 °C. […] Puncta structures >0.2 μm were then identified using Otsu thresholding and the results represented as particles per cell for each set of images analyzed. […] The statistical differences between two or more groups were determined by One-way ANOVA followed by Sidak post-hoc multiple-comparison test. […]
# [5] = Microsomal metabolic stability, human; format: in vitro ADME; conditions: liver microsomes; for microsomal CLint at 1.1 μM: pH 7.4, 0.5 mg/mL; for half-life at 1.1 μM: pH 7.4, read-out: t1/2 (human)
# Description: The assay was performed at Jubilant Biosys. Vials containing human or mouse microsomes were collected from the -80 °C freezer and thawed on ice. Then 27.5 μL of the initial microsome solutions (20 mg/mL) were diluted in 971.5 μL of a 67 mM potassium phosphate buffer solution (pH 7.4). The testing compounds were diluted in the buffered microsomal solution to obtain a final concentration of 1.1 μM. Then four different aliquots, each containing 180 μL of the assay solution, representing the samples at T = 0, T = 5, T = 15, and T = 30 min. The samples were pre-incubated at 37 °C for 5 min with gentle shaking, and then 20 μL of a NADPH solution (10 mM) was added to the different solutions of the test compounds. […] An aliquot of the supernatant (200 μL) was collected from each reaction sample and analyzed by LC-MS/MS. The Ln values of the peak area of the compounds to the internal standard over time (min.) were graphed using Excel, and the elimination rates of the compounds (k) were determined from the slopes obtained from the graphs. The k values were used to calculate the compounds half-life using the equation: t1/2=Ln2/k The intrinsic clearance (CLint) of each compound in the presence of mouse and human microsomes was calculated using the equation: […] Verapamil and Ketoconazole were used as controls to evaluate the assay performance. The results are presented as an average of two technical replicates.
# [6] = Parallel artificial membrane permeability assay - blood brain barrier (PAMPA-BBB); conditions: for Log Pe: PAMPA-BBB, High permeability LogPe > −5.33, No permeability LogPe < −6.14; for Papp at 18 h, 250 μM: pig, PAMPA, pH 7.5
microsomal CLint at 1.1 μM [5],half-life at 1.1 μM [5],Log Pe [6],"Papp at 18 h, 250 μM [6]",SMILES,EC50 [1],EC50 Fold difference [2],"viability at 24 h, 30 μM [3]","viability at 48 h, 30 μM [3]",EC50 at 24 h [3],EC50 at 48 h [3],DAPRed fluorescence signal (autophagy flux) compared to vehicle [4]
10.4 ± 3.1 µL/min/mg,> 120 min,−4.94,11.5 ± 0.66 ×10⁻⁶ cm/s,"CC(C)(Oc1cc(C(F)(F)F)cc(C(F)(F)F)c1)C1CC(=O)CC(=O)C1 [Compound 20, 5-(2-(3,5-bis(trifluoromethyl)phenoxy)propan-2-yl)cyclohexane-1,3-dione]",2.47 ± 0.15 µM,>11,96%,92.3%,> 30 µM,> 30 µM,increasing DAPRed fluorescence signal
25.8 ± 1.6 µL/min/mg,53.9 ± 3.3 min,−5.07,8.46 ± 0.1 ×10⁻⁶ cm/s,"O=C1CC(=O)CC(/C=C/c2cc(C(F)(F)F)cc(C(F)(F)F)c2)C1 [Compound 6, (E)-5-(3,5-Bis(trifluoromethyl)styryl)cyclohexane-1,3-dione]",1.98 ± 0.25 µM,>14,91.9%,94%,> 30 µM,> 30 µM,
